In assay [1] the test system is Rattus norvegicus. As to the kind of experiment: Antihypertensive activity was evaluated in spontaneously hypertensive rat model with base line systolic pressure of 174 mmHg by the indirect tail-cuff method at an oral screening dose of 50 mg/Kg. Type of assay: functional, Blood.
Assay [2] concerns Rattus norvegicus. As to the kind of experiment: Antihypertensive activity was evaluated in spontaneously hypertensive rat model with base line systolic pressure of 189 mmHg by the indirect tail-cuff method at an oral screening dose of 50 mg/kg. Type of assay: functional, Blood.

In the assay with Rattus norvegicus [1], `N=C(N)NCCN1CCCCCCC1` [GUANETHIDINE] registered a BP of -20 mmHg. Turning to `CN1C(c2ccccc2)=Nc2ccccc2CC1c1ccccc1.Cl` (configuration not stated), the BP in the assay on Rattus norvegicus [2] is listed as -56 mmHg.

Source of the values: ChEMBL document CHEMBL1122626, “(+/-)-4-Aryl-4,5-dihydro-3H-1,3-benzodiazepines. 3. 2-Phenyl and 2-amino analogues as potential antihypertensive agents” (1984).
